Test results reported in patent US4875922A, “Pyrimidine derivatives” (Imperial Chemical Industries PLC, priority 1986, dated 1989).

Columns and labels:
[1] = system: Pyricularia oryzae; format: in vivo; details: 100 ppm spray plus root drench (approximately 40 ppm a.i/dry soil), one or two days before inoculation
[2] = system: Wheat; assay: Whole plant screen for plant growth regulator activity, wheat (WW); format: in vivo, Wheat (Timmo); details: WW, 4000 ppm (4 kg/ha), visual score after 2-6 weeks; for T = Tillering or side shooting: * = decrease in tillering
Outline: (§1)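 Visual scoring of morphological effects after 2-6 weeks in glasshouse, compared with formulation-blank controls. Spray application was 4000 ppm, equal to 4 kg/ha at 1000 l/ha field volume, at set leaf stages. Growth at 25° C./22° C. day/night with 16 hour photoperiod; temperate cereals wheat and barley at 16° C./13° C.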

[3] = system: Barley; assay: Whole plant screen for plant growth regulator activity, barley (BR); format: in vivo, Barley (Atem); details: BR, 4000 ppm (4 kg/ha), visual score after 2-6 weeks; for T = Tillering or side shooting: * = decrease in tillering
Outline: as §1

[4] = system: Plasmopara viticola; assay: Foliar fungal disease control, Plasmopara viticola (vine); format: in vivo; details: 100 ppm spray plus root drench (approximately 40 ppm a.i/dry soil), one or two days before inoculation
[5] = system: Cercospora arachidicola; assay: Foliar fungal disease control, Cercospora arachidicola (peanut); format: in vivo; details: 100 ppm spray plus root drench (approximately 40 ppm a.i/dry soil), one or two days before inoculation
[6] = system: Erysiphe graminis; assay: Foliar fungal disease control, Erysiphe graminis (barley); format: in vivo; details: 100 ppm spray plus root drench (approximately 40 ppm a.i/dry soil); inoculated 24 hours before treatment
[7] = system: Tomato; assay: Whole plant screen for plant growth regulator activity, tomato (TO); format: in vivo, Tomato (Ailsa Craig); details: 4000 ppm (4 kg/ha), visual score after 2-6 weeks
Outline: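 Plant growth regulation scored visually 2–6 weeks post-spray, relative to formulation-blank controls, with growth at 25/22 °C day/night under 16 h light. Treatment: 4000 ppm (4 kg/ha, 1000 l/ha volume) track-sprayed onto Ailsa Craig tomato at the 2–2½ leaf stage, grown singly in 3-inch peat pots.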

[8] = system: Puccinia recondita; assay: Foliar fungal disease control, Puccinia recondita (wheat); format: in vivo; details: 100 ppm spray plus root drench (approximately 40 ppm a.i/dry soil), one or two days before inoculation
[9] = system: Phytophthora infestans; format: in vivo; details: 100 ppm spray plus root drench (approximately 40 ppm a.i/dry soil), one or two days before inoculation
[10] = system: Sunflower; assay: Modified Intermediate Retardant Test, sunflower; format: in vivo; details: 2000 g/ha, height to apex 14 days after treatment; for […] IN HEIGHT, SR (Foliar): foliar only spray; for […] IN HEIGHT, SR (Root): root drench
From the text: (§2) The general Intermediate Retardant Test described in Example 62 was modified by the addition of Sunflowers (SR) and the variety and growth stages at spray are outlined in Table XIII. Apart from the changes indicated, growing conditions for barley, rice and apples were as in Example 62 and growing conditions for Sunflower were as for apples. Test compounds were applied to barley, rice and apples as whole plant (overall) sprays at a rate of 2000 g/ha. Test compounds were applied to sunflowers separately as a foliar only spray at a rate of 2000 g/ha and as a root drench at a rate of 2000 g/ha.
(§3) Barley and rice were assessed for height to topmost ligule 21 days after treatment; apples were assessed for height to apex at 21 days after treatment; and sunflowers were assessed for height to apex at 14 days after treatment. The results are expressed as percentage reduction in height compared with the formulation blank in Table XIV.

[11] = system: Barley; assay: Modified Intermediate Retardant Test, barley; format: in vivo, Barley (Atem); details: 2000 g/ha, overall spray, height to topmost ligule 21 days after treatment
From the text: as §2, §3

[12] = system: Apple; assay: Modified Intermediate Retardant Test, apples; format: in vivo, Apple (Red Delicious); details: 2000 g/ha, overall spray, height to apex 21 days after treatment
From the text: as §2, §3

[13] = system: Rice; assay: Modified Intermediate Retardant Test, rice; format: in vivo, Rice (Ishikari); details: 2000 g/ha, overall spray, height to topmost ligule 21 days after treatment
From the text: as §2, §3

[14] = system: Rice; assay: Intermediate Retardant Test, rice; format: in vivo, Rice (Ishikari); details: Oryza sativa, 672 h, overall spray, approximately 28 days, Table VI, read-out: Percentage Reduction in Height of Rice (Compared to formulation blank)
Outline: (§4)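 Overall spray at 500 and 2000 ppm (0.5 and 2 kg/ha^-1 at 1000 l/ha^-1); for apples, a 2000 ppm foliar-only spray was also compared with a 2000 ppm root drench. Rice grew in flooded 4" paddy pots, barley and apples in 4" pots. About 28 days after treatment, height (to top-most ligule, or to apex for apples) was recorded as % reduction versus formulation blank.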

[15] = system: Apples; assay: Intermediate Retardant Test, apples, foliar spray compared with root drench; format: in vivo, Apples (Red Delicious); details: 672 h, approximately 28 days, Table IX, read-out: Percentage Reduction in Height of Apples (Compared to formulation blank)
Outline: as §4

[16] = system: Rice; assay: Whole plant screen for plant growth regulator activity, rice (RC); format: in vivo, Rice (Ishikari); details: 4000 ppm (4 kg/ha), visual score after 2-6 weeks
Outline: as §1

[17] = system: Maize; assay: Whole plant screen for plant growth regulator activity, maize (MZ); format: in vivo, Maize (Earliking); details: 4000 ppm (4 kg/ha), visual score after 2-6 weeks
Method: Compounds 1 to 3 in Table 1 were tested for plant growth regulator activity against five species for various growth effects relevant to plant growth regulation.
The plant species used in this screen are presented in Table II with the leaf stage at which they were sprayed. Each chemical was applied at 4000 ppm (4 kg/ha in a 1000 l/ha field volume) using a tracksprayer and a SS8004E (Teejet) nozzle.
After spray the plants were grown in a glasshouse with 25° C. day/22° C. night temperatures and supplementary lighting was supplied when necessary (from mercury vapour lamps), to provide a 16 hour photoperiod. The exception to this were the temperate cereals, wheat and barley which were grown in 16° C. day/13° C. night temperatures.
After 2-6 weeks in the glasshouse, depending on the time of year, the plants were visually assessed for morphological characteristics. Formulation blanks were used as controls to assess the plants. […]

[18] = system: Spring Barley; assay: Intermediate Retardant Test, spring barley; format: in vivo, Spring Barley (Atem/kym); details: Hordeum vulgare, 672 h, overall spray, approximately 28 days, Table VII, read-out: Percentage Reduction in Height of Spring Barley (Compared to formulation blank)
Outline: as §4

[19] = system: Apple; assay: Whole plant screen for plant growth regulator activity, apple (AP); format: in vivo, Apple (Red Delicious); details: 4000 ppm (4 kg/ha), visual score after 2-6 weeks
Outline: as §1

CC(C)(C)/C=C/C(O)(c1cncnc1)C1(C)CC1 (stereo not drawn) [Compound 55]
disease control, P[…] (RICE) [1]: 0 (60-100% of disease on untreated plants) | G = Greening effect [2]: 1 (10-30%) | I = Interligular or internodal length reduction [2]: 2 (31-60%) | R = Retardation [2]: 2 (31-60%) | T = Tillering or side shooting [2]: 1 (10-30%) | T = Tillering or side shooting [3]: 3 (61-100%) | disease control, PLASMOPARA VITICOLA (VINE) [4]: 0 (60-100% of disease on untreated plants) | disease control, CERCOSPORA ARACHIDICOLA (PEANUT) [5]: 4 | disease control, ERYSIPHE GRAMINIS (BARLEY) [6]: 4 | G = Greening effect [7]: 2 (31-60%) | I = Interligular or internodal length reduction [7]: 2 (31-60%) | R = Retardation [7]: 2 (31-60%) | disease control, PUCCINIA RECONDITA (WHEAT) [8]: 4 | disease control, PH[…] (TOMATO) [9]: 0 (60-100% of disease on untreated plants)

CCCCCC#CC(O)(c1cncnc1)C(C)(C)C (stereo not drawn) [Compound 32]
[…] IN HEIGHT, SR (Foliar) [10]: 13% | […] IN HEIGHT, SR (Root) [10]: 37% | G = Greening effect [2]: 1 (10-30%) | I = Interligular or internodal length reduction [2]: 3 (61-100%) | R = Retardation [2]: 2 (31-60%) | G = Greening effect [3]: 2 (31-60%) | I = Interligular or internodal length reduction [3]: 3 (61-100%) | R = Retardation [3]: 3 (61-100%) | T = Tillering or side shooting [3]: 1 (10-30%) | […] IN HEIGHT, BR [11]: 17% | […] IN HEIGHT, AP [12]: 30% | G = Greening effect [7]: 2 (31-60%) | I = Interligular or internodal length reduction [7]: 1 (10-30%) | R = Retardation [7]: 2 (31-60%) | […] IN HEIGHT, RC [13]: 46%

CC(C)CCCC(O)(c1cncnc1)C(C)C (stereo not drawn) [Compound 7, 2-Methyl-1-(4-methylpentyl)-1-(pyrimidin-5-yl)propan-1-ol]
disease control, P[…] (RICE) [1]: 0 (60-100% of disease on untreated plants) | G = Greening effect [2]: 2 (31-60%) | I = Interligular or internodal length reduction [2]: 3 (61-100%) | R = Retardation [2]: 3 (61-100%) | T = Tillering or side shooting [2]: 3 (61-100%) | G = Greening effect [3]: 2 (31-60%) | I = Interligular or internodal length reduction [3]: 2 (31-60%) | R = Retardation [3]: 2 (31-60%) | T = Tillering or side shooting [3]: 1 (10-30%) | Percent reduction in rice height vs formulation blank at 500 ppm ([14]; 500 ppm): 31% | Percent reduction in rice height vs formulation blank at 2000 ppm ([14]; 2000 ppm): 45% | disease control, CERCOSPORA ARACHIDICOLA (PEANUT) [5]: 0 (60-100% of disease on untreated plants) | disease control, ERYSIPHE GRAMINIS (BARLEY) [6]: 4 | G = Greening effect [7]: 2 (31-60%) | I = Interligular or internodal length reduction [7]: 3 (61-100%) | R = Retardation [7]: 3 (61-100%) | disease control, PUCCINIA RECONDITA (WHEAT) [8]: 0 (60-100% of disease on untreated plants) | disease control, PH[…] (TOMATO) [9]: 0 (60-100% of disease on untreated plants) | percent reduction in plant height at 2000 ppm ([15]; 2000 ppm (Foliar)): 12% | percent reduction in plant height at 2000 µg/mL ([15]; soil, 2000 pmm (Root), root drench): 45% | G = Greening effect [16]: 1 (10-30%) | I = Interligular or internodal length reduction [16]: 2 (31-60%) | R = Retardation [16]: 2 (31-60%) | G = Greening effect [17]: 1 (10-30%) | I = Interligular or internodal length reduction [17]: 2 (31-60%) | R = Retardation [17]: 2 (31-60%) | percent reduction in plant height at 500 ppm ([18]; 500 ppm): 23% | percent reduction in plant height at 2000 ppm ([18]; 2000 ppm): 47% | G = Greening effect [19]: 1 (10-30%) | I = Interligular or internodal length reduction [19]: 2 (31-60%) | R = Retardation [19]: 3 (61-100%)

CCC/C=C\C(O)(c1cncnc1)C(C)C (stereo not drawn) [Compound 25, 2-methyl-1-(pent-1-ene)-1-(pyrimidin-5-yl)-propan-1-ol]
[…] IN HEIGHT, SR (Foliar) [10]: 0% | […] IN HEIGHT, SR (Root) [10]: 54% | G = Greening effect [2]: 2 (31-60%) | I = Interligular or internodal length reduction [2]: 1 (10-30%) | R = Retardation [2]: 1 (10-30%) | G = Greening effect [3]: 3 (61-100%) | I = Interligular or internodal length reduction [3]: 3 (61-100%) | R = Retardation [3]: 3 (61-100%) | T = Tillering or side shooting [3]: 1* | […] IN HEIGHT, BR [11]: 52% | […] IN HEIGHT, AP [12]: 31% | G = Greening effect [7]: 2 (31-60%) | I = Interligular or internodal length reduction [7]: 1 (10-30%) | R = Retardation [7]: 1 (10-30%) | […] IN HEIGHT, RC [13]: 55%

CCCCCCC#CC(O)(c1cncnc1)C(C)C (stereo not drawn) [Compound 24]
[…] IN HEIGHT, SR (Foliar) [10]: 0% | […] IN HEIGHT, SR (Root) [10]: 3% | G = Greening effect [2]: 2 (31-60%) | R = Retardation [2]: 1 (10-30%) | I = Interligular or internodal length reduction [3]: 2 (31-60%) | R = Retardation [3]: 2 (31-60%) | T = Tillering or side shooting [3]: 2* | […] IN HEIGHT, BR [11]: 6% | […] IN HEIGHT, AP [12]: 37% | G = Greening effect [7]: 2 (31-60%) | R = Retardation [7]: 1 (10-30%) | […] IN HEIGHT, RC [13]: 17%
